Test results: US20130331389A1, “Methods and Compositions for Cardiomyocyte Replenishment by Endogenous and Progenitor Stem Cells” (NATIONAL CHENG KUNG UNIVERSITY, priority 2012, published 2013)

What was measured:
Assay type in all cases: in vivo, mouse
[1] = tested on: TGF-β1; assay: Quantitative RT-PCR of TGF-β1 in infarcted region of MI heart; conditions: day 3 and day 7 after injury
Procedure: (§1) To induce Cre recombination to achieve GFP labeling of cardiomyocytes, tamoxifen (Sigma) was dissolved in sunflower oil (Sigma) at a concentration of 5 mg/ml. The tamoxifen solution was injected intraperitoneally into M/Z mice daily at a dosage of 40 μg per 1 g body weight for 14 days, and the same dosage was injected twice daily for short-term labeling using methods known in the art (Laugwitz, K.-L. et al. Nature 433, 647-653 (2005)). All experimental conditions were optimized prior to the PGE2, indomethacin and TGF-β Type I Receptor Kinase Inhibitor II (ALK5 Inhibitor II, ALK5i, Merck) treatments. The mice treated with PGE2 or PGI2 (Vegiopoulos, A. et al. Science 328, 1158-1161 (2010)) (both from Sigma) were injected intraperitoneally with 3.33 ng of drug per 1 g of body weight dissolved in absolute ethanol twice daily. […]
(§2) The total RNA isolated from the ischemic region or remote area of MI hearts was reverse transcribed using the SuperScript III (Invitrogen) system according to the manufacturer's protocol. For quantitative PCR, the SYBR Green reagent (Maestrogen) was used according to the manufacturer's protocol. The analysis of relative gene expression was performed using the 2̂[−delta delta Ct] method and sequence-specific primers designed for semi-quantitative PCR and real-time RT-PCR (FIG. 11).

[2] = tested on: MMP2, MMP9, TNF-α, IL-1β and IL-6; assay: Quantitative RT-PCR of inflammatory cytokines in infarct region; conditions: young mice
Procedure: as §1, §2

[3] = tested on: Sca-1+ cells; assay: Flow cytometry of Sca-1+/GFP+ cardiac small cells on day 3 post-MI; conditions: tamoxifen 80 μg/g per day for 3 days, P<0.001
Procedure: as §1, with “daily. For the indomethacin treatment, mice were fed with water containing indomethacin (Sigma, 15 μg/ml) for different periods of time. The indomethacin-containing water was changed every 3 days. The mice subjected to the celecoxib (Lyons, T. R. et al. Nat. Med. 17, 1109-1115 (2011)) (Sigma) treatment were injected intraperitoneally with 5 μg of drug per 1 g of body weight daily. For ALK5i treatment, aged mice were injected intraperitoneally once per day with 1 μg of drug per 1 g of body weight one day before surgery and continuously until day 10 post-MI.” for “daily.”

[4] = tested on: M1 (CD11b+/CD11c+) and M2 (CD11b+/CD206+) macrophages; assay: Immunostaining of M1 and M2 macrophages in heart sections day 3 post-infarction; conditions: young mice
Procedure: as §1, with “daily. For the indomethacin treatment, mice were fed with water containing indomethacin (Sigma, 15 μg/ml) for different periods of time.” for “daily.”
The harvested hearts were fixed with 4% paraformaldehyde and embedded in paraffin. […] A DAB substrate kit (Vector Laboratories) was used for immunohistochemistry and appropriate secondary antibodies (Invitrogen or Abcam) were used for visualization under a fluorescence microscope. […] The appropriate secondary antibodies (Invitrogen or Jackson ImmunoResearch) were used for visualization under a fluorescence microscope. […]

For CCCCC[C@H](O)/C=C/C1C(O)CC(=O)C1C/C=C\CCCC(=O)O (stereo partly drawn) [PGE2, (5Z,11α,13E,15S)-7-[3-hydroxy-2-(3-hydroxyoct-1-enyl)-5-oxo-cyclopentyl]hept-5-enoic acid], the “expression of TGF-β1” value ([1]; aged mice) was “decline”, the “expression of TGF-β1” value ([1]; young mice) was “not significantly altered” and the “expression of inflammatory cytokines acting downstream of PGE2” value [2] was “further enhanced”. The “number of Sca-1+/GFP+ cells” value [3] was “expanding”, the “number of M1 macrophage” value [4] was “reduced” and the “number of M2 macrophage” value [4] was “increased”.
